Assay results reported in PMC4063695, “Design of Embedded-Hybrid Antimicrobial Peptides with Enhanced Cell Selectivity and Anti-Biofilm Activity” (PLoS ONE, 2014).
No end group written: not given here.

Columns and labels:
[1] = system: Gram-negative and Gram-positive strains; assay: MIC over all tested strains (range, geometric mean); format: cell-based; design: GM (geometric mean of MIC values from all microbial strains): unit not given here; details: all strains of Table 2
Excerpt: (§1) E. coli ATCC25922, P. aeruginosa ATCC27853, S. aureus ATCC29213, S. epidermidis ATCC12228, S. faecalis ATCC29212 and B. subtilis CMCC63501 were obtained from the College of Veterinary Medicine, Northeast Agricultural University (Harbin, China), E. coli K88, E. coli CVCC1515 and P. aeruginosa ATCC15442 were bestowed by Prof. J.H. Wang (Gene Engineering Laboratory, Feed Research Institute, Chinese Academy of Agricultural Sciences Beijing, China) and E. coli UB1005 was kindly provided by Prof. Q.S. Qi (State Key Laboratory of Microbial Technology, Shandong University, China). […] Briefly, 50 µl of approximate 0.5–1 × 10^6 colony forming units (CFU)/ml of cells were diluted in Mueller-Hinton broth and distributed to 96-well plate, 50 µl of twofold peptides were added and the plates was incubated at 37°C for 18–24 h. The MIC values were calculated as the lowest peptide concentration that prevented visible turbidity and negative control of the pure broth without microbes. The tests were performed at least three times in duplicate.

[2] = system: E. coli ATCC25922; assay: MIC in the presence of physiological salts; format: cell-based, Escherichia coli; design: unit not given here
Excerpt: as §1
(§2) The stability of peptides was tested in the MIC assay in different environments, including salt sensitivity, human serum, thermal stability and susceptibility to enzymes. For salt sensitivity, 0.5–1 × 10^6 CFU/ml of P. aeruginosa ATCC27853 and E. coli ATCC25922 were treated with peptides, while different salts were added to MHB, and the final concentrations of physiological salts were as follows: 150 mM NaCl, 4.5 mM KCl, 1 mM MgCl2, 6 µM NH4Cl, 8 µM ZnCl2, 4 µM FeCl3 and […] [33]. Except salt sensitivity, only E. coli ATCC25922 was treated with peptides. […] For testing peptide sensitivity to the proteolytic enzymes, the peptides were incubated in advance at 37°C for 1 h with a 1 mg/ml final concentration of the proteolytic enzymes (trypsin, pepsin, papain and proteinase K). For testing thermal stability, incubation occurred at 100°C for 1 h. After these treatments, the procedures were same as MIC assay described above.

[3] = system: P. aeruginosa ATCC27853; assay: MIC in the presence of physiological salts; format: cell-based, Pseudomonas aeruginosa; design: unit not given here
Excerpt: as §1, §2

[4] = system: E. coli ATCC25922; assay: MIC after treatment with serum, enzymes and heat; format: cell-based, Escherichia coli; details: E. coli ATCC25922
Excerpt: as §1, §2

[5] = system: E. coli UB1005; assay: Cytoplasmic membrane electrical potential, diSC3-5; format: cell-based, Escherichia coli; details: diSC3-5 release over 600 s
Protocol: Peptides could alter the electrical potential of cytoplasmic membrane, and this potential that was measured by using E. coli UB1005 cells and diSC3-5 (Sigma), a membrane potential-sensitive fluorescent dye, as previously described, [35]. E. coli UB1005 was cultured to logarithmic phase in MHB, harvested by centrifugation, washed twice with buffer (5 mM of HEPES and 20 mM of glucose, pH 7.4) and resuspended to an OD600 of 0.05 in the identical buffer. The dye (diSC3-5) was added to above buffer at a final concentration of 0.4 µM. And the bacteria were incubated to take up the dye for 90 min. KCl was added to a final concentration of 0.1 M for equilibrating K^+ concentration between extracellular and intracellular environment, and then the bacteria were incubated at room temperature for 10 min. The cell suspension (2 ml) was placed in a 1-cm cuvette, and the peptides were added to different concentrations. The fluorescence intensity changes were monitored by using an F-4500 fluorescence spectrophotometer (Hitachi, Japan) with an excitation wavelength of 622 nm and an emission wavelength of 670 nm.

[6] = system: B. subtilis CMCC63501; details: CMCC63501
Excerpt: as §1

[7] = system: E. coli ATCC25922; details: ATCC25922
Excerpt: as §1

[8] = system: E. coli CVCC1515; details: CVCC1515
Excerpt: as §1

[9] = system: E. coli K88; details: MHB, 37°C, 18-24 h, at least three times in duplicate
Excerpt: as §1

[10] = system: E. coli UB1005; details: UB1005
Excerpt: as §1

[11] = system: P. aeruginosa ATCC15442; details: ATCC15442
Excerpt: as §1

[12] = system: P. aeruginosa ATCC27853; details: ATCC27853
Excerpt: as §1

[13] = system: P. aeruginosa variant 1; details: P. aeruginosa variant 1, obtained by step-wise culture with ciprofloxacin hydrochloride; MHB, 37°C, 18-24 h
Excerpt: as §1

[14] = system: P. aeruginosa variant 2; details: P. aeruginosa variant 2, obtained by step-wise culture with gentamicin; MHB, 37°C, 18-24 h
Excerpt: as §1

[15] = system: S. pullorum C79-13; details: C79-13
Excerpt: as §1

[16] = system: S. typhimurium ATCC14028; details: ATCC14028
Excerpt: as §1

[17] = system: S.aureus ATCC29213; details: ATCC29213
Excerpt: as §1

[18] = system: S.epidermidis ATCC12228; details: ATCC12228
Excerpt: as §1

[19] = system: S.faecalis ATCC29212; details: ATCC29212
Excerpt: as §1

[20] = system: human red blood cells (hRBC); assay: Hemolytic activity; format: cell-based; details: pH 7.4
Protocol: The amount of released hemoglobin by the lysis of erythrocytes was measured for hemolytic activity of peptides. Human erythrocytes were obtained from a healthy donor with written informed consent. The experimental protocol was reviewed and approved by the ethics committee of the Northeast Agricultural University Hospital. The measurement was based on a previously described method. The fresh hRBCs were washed three times by centrifugation (1000 g, 5 min, 4°C) in PBS (pH 7.4), and then resuspended in PBS to obtain the erythrocyte with a dilution of approximately 1% (v/v). Then, 50 µL of hRBCs solution was incubated with 50 µL of different concentrations of the peptides dissolved in PBS for 1 h at 37°C, before centrifugation (1000 g, 5 min, 4°C) again. The absorbance of the supernatants was measured at optical density (OD) 492 nm. […] The control samples for 0% and 100% hemolysis consisted of hRBCs in PBS (Ablank) only and in 0.1% Triton X-100 (Atriton), respectively. The percentage of hemolysis was calculated according to the following equation: [drawing 3]

[21] = Circular dichroism, secondary structure; format: physicochemical; details: 30 mM SDS micelles; 150 µM peptide
Protocol: The CD spectra were measured with a CD spectropolarimeter (Jasco, J-820, Tokyo, Japan) at 25°C, using a 0.1 cm path length rectangular quartz cell. The spectra were recorded at between 190 and 250 nm at 10 nm/min scanning speed. At least three scans were conducted for each peptide sample.
The acquired CD spectra were converted to the mean residue ellipticity through the following equation: [drawing 1]
where θM is the mean residue ellipticity [deg.cm2.dmol-1], θobs is the observed ellipticity corrected for the buffer at a given wavelength [mdeg], c is the peptide concentration [mM], l is the path length [mm], and n is the number of amino acids.
The percentage of α-helical structure was calculated as followings: [drawing 2]
where [θ]222 is the experimentally observed mean residue ellipticity at 222 nm, and values for [θ]^0 and [θ]^100 which correspond to 0 and 100% a-helix content at 222 nm, are estimated to be −2000 and −32000, respectively, [29].

[22] = all kinds of salts in physiological concentrations

## CC[C@H](C)[C@H](NC(=O)CN)C(=O)NCC(=O)N[C@@H](C)C(=O)N[C@H](C(=O)N[C@@H](CC(C)C)C(=O)N[C@@H](CCCCN)C(=O)N[C@H](C(=O)N[C@@H](CC(C)C)C(=O)N[C@H](C(=O)N[C@H](C(=O)NCC(=O)N[C@@H](CC(C)C)C(=O)N1CCC[C@H]1C(=O)N[C@@H](C)C(=O)N[C@@H](CC(C)C)C(=O)N[C@H](C(=O)N[C@@H](CO)C(=O)N[C@@H](Cc1c[nH]c2ccccc12)C(=O)N[C@H](C(=O)N[C@@H](CCCCN)C(=O)N[C@@H](CCCNC(=N)N)C(=O)N[C@@H](CCCCN)C(=O)N[C@@H](CCCNC(=N)N)C(=O)N[C@@H](CCC(N)=O)C(=O)N[C@@H](CCC(N)=O)C(N)=O)[C@@H](C)CC)[C@@H](C)CC)[C@@H](C)O)[C@@H](C)O)C(C)C)C(C)C [ME26, melittin, reference compound]
[1]
  GM (geometric mean of MIC values from all microbial strains): 2.2
[2]; 4 µM FeCl3 in MHB
  MIC, FeCl3: 2
[2]; 6 µM NH4Cl in MHB
  MIC, NH4Cl: 2
[2]; 8 µM ZnCl2 in MHB
  MIC, ZnCl2: 4
[2]; 1 mM MgCl2 in MHB
  MIC, MgCl2: 4
[2]; 4.5 mM KCl in MHB
  MIC, KCl: 2
[2]; 150 mM NaCl in MHB
  MIC, NaCl: 4
[2]; [22]
  MIC, Mix: 4
[2]; in MHB
  MIC, CaCl2: 2
[2]; no added salts, unit not given
  MIC, Control: 2
[3]; 2.5 µM CaCl2 in MHB
  MIC, CaCl2: 2
[3]; 4 µM FeCl3 in MHB
  MIC, FeCl3: 2
[3]; 6 µM NH4Cl in MHB
  MIC, NH4Cl: 2
[3]; 8 µM ZnCl2 in MHB
  MIC, ZnCl2: 2
[3]; 1 mM MgCl2 in MHB
  MIC, MgCl2: 8
[3]; 4.5 mM KCl in MHB
  MIC, KCl: 2
[3]; 150 mM NaCl in MHB
  MIC, NaCl: 2
[3]; [22]
  MIC, Mix: 16
[3]; no added salts, unit not given
  MIC, Control: 2
[4]; 25% human serum in MHB
  MIC, Serum 25%: 8
[4]; 50% human serum in MHB
  MIC, Serum 50%: 8
[4]; peptide incubated at 100°C for 1 h
  MIC, Heat 100°C: 2
[4]; peptide pre-incubated 1 h at 37°C with 1 mg/ml enzyme (method names papain)
  MIC, Enzymes Caroid: >128
[4]; peptide pre-incubated 1 h at 37°C with 1 mg/ml pepsin
  MIC, Enzymes Pepsin: >128
[4]; peptide pre-incubated 1 h at 37°C with 1 mg/ml proteinase K
  MIC, Enzymes Proteinase K: 32
[4]; peptide pre-incubated 1 h at 37°C with 1 mg/ml trypsin
  MIC, Enzymes Trypsin: >128
[5]
  cytoplasmic membrane depolarization (in words): able to permeabilize the bacterial cell membrane even at a lower concentration than their MICs

## FRIRVRV-NH2 [FV7, reference compound]
[6]
  MIC: 16 µM
[7]
  MIC: 16 µM
[8]
  MIC: 32 µM
[9]
  MIC: 16 µM
[10]
  MIC: 32 µM
[11]
  MIC: 16 µM
[12]
  MIC: 16 µM
[13]
  MIC: 8 µM
[14]
  MIC: 16 µM
[15]
  MIC: 128 µM
[16]
  MIC: 16 µM
[17]
  MIC: 64 µM
[18]
  MIC: 32 µM
[19]
  MIC: 32 µM
[1]
  GM (geometric mean of MIC values from all microbial strains): 29
[20]
  MHC: >256 µM
[21]
  secondary structure (in words): β-sheet
